In patent US20080200393A1, “Method and Composition For Treating Angiogenesis and For Preventing Cancer Progression and Metastasis Comprising a Prostate Secretory Protein (Psp94) Family Member” (Ambrillia Biopharma Inc., priority 2004, published 2008):
Values belong to the molecule of their own block, whether it stands above or below them. Where no end group is shown, it is not given here. The star is where a group is joined. Acm = CC(=O)NC*

Key:
[1] = system: ERK; assay: Intrinsic effect on ERK phosphorylation (Western blot); type: cell-based
Protocol: The induction of the MAPK pathway by the PCK3145 derivative is further confirmed by the rapid and transient induction of ERK phosphorylation between 5-10 minutes (FIG. 8B) and is shown to be dose-dependent (FIG. 8C). Finally, the effects of the PCK3145 derivative were also compared to those of a scrambled peptide.

[2] = system: proMMP-2; assay: Gelatin zymography of HUVEC conditioned media; type: cell-based, Human; details: HUVEC, serum-free media
Protocol: Zymography. Zymography is a technique generally used to analyze the activity of matrix metalloproteinases (MMPs) in biological samples. It involves the electrophoretic separation of proteins under denaturing (Sodium Dodecyl Sulfate (SDS)) but non-reducing conditions through a polyacrylamide gel containing gelatin (for example, 10% gel containing 1 mg/ml gelatin for MMP-9 and MMP-2 assays). The resolved proteins are re-natured by exchanging SDS with a non-ionic detergent such as Triton X-100 and the gel is incubated in an incubation buffer for activation of MMP-2 and MMP-9 (for example at 37° C. for 18 hrs). The gel is stained with Coomassie blue and the MMP-2 and MMP-9 bands may be visualized as clear bands against a blue background (i.e., the MMPs degrade the gelatin and are visualized as clear bands; pro MMP-2 is 68 kDa and pro-MMP-9 is 92 kDa). These bands can be quantified using densitometry. For example, prior to stimulation, quiescent HUVEC were serum-starved for 16 h in the presence or absence of PCK3145 or PD98059 and then stimulated with VEGF. The conditioned media were collected 24 h after stimulation, and clarified by centrifugation. Identical volume of conditioned media were mixed with non reducing Laemmli sample buffer and subjected to 7.5% SDS-polyacrylamide gels containing 1 mg/ml gelatin (Sigma). The gels were then incubated for 30 min at room temperature twice in 2.5% (v/v) Triton X-100 and rinsed five times in doubly distilled water. The gels were incubated at 37° C. for a further 18 h in 200 mM NaCl/5 mM CaCl2/0.02% (v/v) Brij-35/50 mM Tris/HCl buffer (pH 7.6), then stained with 0.1% Coomassie Brilliant Blue R-250, followed by destaining in 10% (v/v) acetic acid/30% (v/v) methanol in water. Gelatinolytic activity was detected as unstained bands on a blue background.
The effect of the PCK3145 derivative (SEQ ID NO.:7) on MMP extracellular levels was thus assessed by gelatin-zymography in the conditioned media of serum-starved HUVEC. After 16 hours of starvation, HUVEC were stimulated with VEGF in the presence or not of the PCK3145 derivative. […]

[3] = system: ERK; assay: Induced ERK phosphorylation in HUVEC (Western blot); type: cell-based, Human
Protocol: Cell culture. Human umbilical vein endothelial cells (HUVEC) and pulmonary aortic smooth muscle cells (PASMC) were obtained from Clonetics and maintained in endothelial cell basal medium-2 (EBM-2; Clonetics) and smooth muscle medium-2 (SmGM-2; Clonetics), respectively. Cells were cultured at 37° C. under a humidified atmosphere containing 5% CO2. For experimental purposes, cells were plated in 8 100-mm plastic dishes at 5,000 cells/cm^2 and were grown to confluence before overnight serum starvation. Cells were treated with vehicle or with a PCK3145 derivative diluted in 0.1 N NaOH, and stimulated with 50-100 ng/ml VEGF or PDGF, with 10 ng/ml of bFGF (basic fibroblast growth factor) or with 1 μM S1P (sphingosine-1-phosphate).
(§1) Immunoprecipitation and immunoblotting procedures. After treatment, cells were washed once with phosphate-buffered saline (PBS) containing 1 mM sodium orthovanadate and were incubated in the same medium for 1 h at 4° C. The cells were solubilized on ice in lysis buffer (150 mM NaCl, 10 mM Tris-HCl, pH 7.4, 1 mM EDTA, 1 mM EGTA, 0.5% Nonidet P-40, 1% Triton X-100) containing 1 mM sodium orthovanadate. The cells were then scraped from the culture dishes and the resulting lysates were clarified by centrifugation at 10,000 g for 10 min; Protein concentrations were determined using the micro bicinchoninic acid method (Pierce). For immunoprecipitation studies, lysates were clarified by a 1 h incubation at 4° C. with a mixture of Protein A/Protein G Sepharose beads. After removal of the Sepharose beads by low-speed centrifugation, identical amounts of protein (200 μg) from each sample were transferred to fresh tubes and incubated in lysis buffer overnight at 4° C. in the presence of 2 μg/ml of specific antibodies. Immunocomplexes were collected by incubating the mixture with 25 μl (50% suspension) of Protein A- (rabbit primary antibody) or Protein G- (mouse primary antibody) Sepharose beads, for 2 h. Nonspecifically-bound material was removed by washing the beads three times in 1 ml of lysis buffer containing 1 mM sodium orthovanadate, and bound material was solubilized in 25 μl of two-fold concentrated Laemmli sample buffer (125 mM Tris-HCl (pH 6.8), 20% glycerol, 4% SDS, 10% β-mercaptoethanol, and 0.00125% bromphenol blue), boiled 5 min, and resolved by SDS-PAGE. The proteins were transferred onto polyvinylidene difluoride (PVDF) membranes, blocked 1 h at room temperature with Tris-buffered saline/Tween 20 (147 mM NaCl, 20 mM Tris/HCl, pH 7.5, and 0.1% Tween 20) containing 2% bovine serum albumin and incubated overnight at 4° C. with primary antibody. […] The immunoreactive bands were quantified by scanning densitometry (Molecular Dynamics).
VEGF is a strong activator of ERKs (Extracellular-signal-Regulated protein Kinases) 1 and 2 via VEGF receptor 2. In order to test the ability of the PCK3145 derivative in potentially antagonizing VEGF-mediated ERK phosphorylation, serum-starved quiescent endothelial cells (HUVEC) were incubated with vehicle (phosphate-buffered saline (PBS) pH 7.4) or PCK3145 derivative (300 μg/ml) for 24 h and then stimulated with VEGF, bFGF (basic Fibroblast Growth Factor) or S1P (sphingosine-1-phosphate). Cells were washed with PBS containing NaF/Na3VO4 and incubated in the same medium buffer for 1 h at 4° C. The cells were scraped from the culture dishes and the resulting lysates clarified by centrifugation. Western blotting and immunodetection using anti-phosphoERK and anti-ERK antibodies was then performed.

[4] = target: T1, VEGFR-2 (Homo sapiens, UniProt P35968); assay: VEGF-induced VEGFR-2 phosphorylation in HUVEC (immunoprecipitation, Western blot); type: cell-based
T1 construct: host or cells: HUVEC
Protocol: as §1, with “SDS-PAGE.” for “SDS-PAGE. The proteins were transferred onto polyvinylidene difluoride (PVDF) membranes, blocked 1 h at room temperature with Tris-buffered saline/Tween 20 (147 mM NaCl, 20 mM Tris/HCl, pH 7.5, and 0.1% Tween 20) containing 2% bovine serum albumin and incubated overnight at 4° C. with primary antibody.”
The multifunctionality of VEGF at the cellular level results from its ability to initiate a diverse, complex and integrated network of signaling pathways via its major receptor, VEGFR-2. […] After each treatment, equal amounts of protein were immunoprecipitated with anti-VEGFR-2 polyclonal antibodies and analysed by Western blotting.

[5] = system: HUVEC; assay: HUVEC migration assay (modified Boyden chambers, gelatin-coated filters); type: cell-based, Human; details: 300 μg/ml
Protocol: Migration Assays. Transwells filters (8-μm pore size; Costar, Cambridge, Mass.) were pre-coated with 0.5% gelatin/PBS for 24 h at 4° C. The transwells were then washed with PBS and assembled in 24-well plates. The upper chamber of each transwell was filled with 100 μl of HUVEC (1×10^6 cells/ml) and cells were allowed to adhere for 1 h. Cells were then treated for 2 h by adding 100 μl of 2-fold concentrated drug solution prepared in serum-free medium into the upper chamber and 600 μl of the drug solution into the lower chamber. Migration was initiated by adding VEGF (10 ng/ml), or S1P (1 μM) to the lower chamber. The plate was placed at 37° C. in 5% CO2/95% air for 4 h. Cells that had migrated to the lower surface of the filters were fixed with 10% formalin phosphate and stained with 0.1% Crystal Violet/20% (v/v) methanol. The migration was quantified using computer-assisted imaging and data are expressed as the average density of migrated cells per four fields (magnification×50).
Cells were plated onto gelatin-coated filters inserted in modified Boyden chemotactic chambers. The effect of PCK3145 on basal migration and on VEGF-induced migration was monitored by the number of cells that had migrated comparatively to untreated control cells. HUVEC were dislodged from the flasks by trypsinization, washed and resuspended in serum-free media. Cells were placed onto gelatin-coated filters inserted in chambers and incubated at 37° C., 5% CO2 for 30 min to allow adequate anchoring to the filters. The monolayers were then exposed to serum-free media containing PCK3145 (300 μg/ml) added within the upper and lower compartment of the chambers. After 2 h, VEGF (50 ng/ml) was added in the lower chamber as a chemoattractant. Cell migration was allowed to proceed for another 3 h. Filters were then fixed, stained, and the migrated cells quantified by microscopy as described in the Methods section. […] The effect of. PCK on S1P-induced HUVEC migration was also measured, but no inhibition was observed (not shown) in this particular assay.

[6] = target: T2, FSH receptor (Homo sapiens, UniProt P23945); details: testicular membrane preparations; Vijayalakshmi et al., 1981; cited from earlier work
T2 construct: host or cells: testicular membrane preparations
T2 sequence (P23945 18-695): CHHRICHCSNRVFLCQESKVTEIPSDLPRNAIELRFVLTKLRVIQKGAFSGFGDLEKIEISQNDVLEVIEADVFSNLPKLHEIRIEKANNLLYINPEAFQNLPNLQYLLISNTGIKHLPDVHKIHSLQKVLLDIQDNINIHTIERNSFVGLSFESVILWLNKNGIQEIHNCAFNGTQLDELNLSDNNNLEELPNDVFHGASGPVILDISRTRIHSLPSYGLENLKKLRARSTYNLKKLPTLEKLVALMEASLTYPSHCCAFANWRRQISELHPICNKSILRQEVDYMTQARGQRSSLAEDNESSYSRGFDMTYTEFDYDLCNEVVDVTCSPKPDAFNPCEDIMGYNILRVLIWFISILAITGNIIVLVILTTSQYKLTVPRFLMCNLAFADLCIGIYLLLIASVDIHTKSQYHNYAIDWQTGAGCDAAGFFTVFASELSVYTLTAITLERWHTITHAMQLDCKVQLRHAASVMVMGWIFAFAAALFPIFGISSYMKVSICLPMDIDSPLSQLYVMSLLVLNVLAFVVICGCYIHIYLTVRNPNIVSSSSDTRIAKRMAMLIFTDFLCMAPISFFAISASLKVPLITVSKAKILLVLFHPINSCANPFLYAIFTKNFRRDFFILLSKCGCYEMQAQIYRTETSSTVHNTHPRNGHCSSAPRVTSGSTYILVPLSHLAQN

[7] = system: FSH; details: Thakur et al., 1981; cited from earlier work
[8] = system: tumor cells; details: U.S. Pat. No. 5,428,011; cited from earlier work
[9] = system: skeletal metastasis; details: WO03/039576; cited from earlier work

T1 sequence (P35968 20-1356): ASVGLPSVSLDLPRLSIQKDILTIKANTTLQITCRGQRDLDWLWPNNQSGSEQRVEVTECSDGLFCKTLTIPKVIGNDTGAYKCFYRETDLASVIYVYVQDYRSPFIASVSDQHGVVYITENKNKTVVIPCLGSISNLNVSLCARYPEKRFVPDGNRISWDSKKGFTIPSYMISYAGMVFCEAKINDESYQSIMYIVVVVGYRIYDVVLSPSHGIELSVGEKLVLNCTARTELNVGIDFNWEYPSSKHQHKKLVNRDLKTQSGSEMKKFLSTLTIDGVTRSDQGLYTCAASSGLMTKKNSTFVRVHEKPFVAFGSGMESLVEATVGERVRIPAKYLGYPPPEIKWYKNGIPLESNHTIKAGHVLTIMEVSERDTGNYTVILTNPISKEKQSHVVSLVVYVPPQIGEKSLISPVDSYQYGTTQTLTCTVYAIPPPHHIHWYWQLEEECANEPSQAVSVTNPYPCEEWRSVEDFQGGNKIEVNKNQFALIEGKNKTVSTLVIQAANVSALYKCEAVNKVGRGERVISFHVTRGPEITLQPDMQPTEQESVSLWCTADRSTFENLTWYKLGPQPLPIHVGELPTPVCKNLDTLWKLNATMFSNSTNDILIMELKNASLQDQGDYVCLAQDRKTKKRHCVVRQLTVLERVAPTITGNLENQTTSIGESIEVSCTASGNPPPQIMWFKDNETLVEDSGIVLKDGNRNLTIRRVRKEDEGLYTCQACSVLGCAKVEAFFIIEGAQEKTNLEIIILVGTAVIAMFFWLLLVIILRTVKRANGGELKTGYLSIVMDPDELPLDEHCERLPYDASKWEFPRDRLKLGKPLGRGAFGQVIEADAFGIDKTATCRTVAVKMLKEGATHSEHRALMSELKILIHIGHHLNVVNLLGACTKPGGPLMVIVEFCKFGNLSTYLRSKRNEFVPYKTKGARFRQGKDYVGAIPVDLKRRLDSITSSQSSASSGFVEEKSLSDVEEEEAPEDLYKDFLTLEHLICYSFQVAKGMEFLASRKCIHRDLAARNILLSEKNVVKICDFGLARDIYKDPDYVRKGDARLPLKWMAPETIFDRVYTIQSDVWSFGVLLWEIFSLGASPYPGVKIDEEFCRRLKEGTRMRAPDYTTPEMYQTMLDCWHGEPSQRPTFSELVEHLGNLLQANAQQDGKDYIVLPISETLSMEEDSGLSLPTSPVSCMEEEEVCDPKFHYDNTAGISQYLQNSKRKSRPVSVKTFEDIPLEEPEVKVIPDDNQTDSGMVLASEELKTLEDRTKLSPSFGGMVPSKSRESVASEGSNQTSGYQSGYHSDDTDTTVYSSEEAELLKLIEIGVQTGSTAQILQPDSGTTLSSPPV

Molecule: COc1cccc(-c2cc(=O)c3ccccc3o2)c1N [PD98059, reference compound]
induction of ERK phosphorylation by the PCK3145 derivative ([1]; MAPK inhibitor added): antagonized | VEGF-induced proMMP-2 extracellular levels [2]: significantly decreased

VEGF-induced VEGFR-2 phosphorylation, negative control [4]: lack of effect
Molecule: TC(Acm)ENC(Acm)TETQWC(Acm)ETDY [scrambled peptide, reference compound]
induction of ERK phosphorylation ([1]; compared to the PCK3145 derivative): unable to induce | VEGF-induced ERK phosphorylation, negative control [3]: lack of effect

Molecule: EWQTDNCETCTCYET (cysteine pairing not given here) [PCK3145, PSP94 fragment, 15 amino acids]
basal cell migration [5]: no significant effect | VEGF-induced cell migration ([5]; VEGF 50 ng/ml): no significant effect

B1: PSP94: Prostate secretory protein of human seminal fluid, 10.7 kDa, 10 cysteine residues; wild type, 94 amino acids (protein, UniProt P08118 21-114, looked up)
Beta-microseminoprotein: SCYFIPNEGVPGDSTRKCMDLKGNKHPINSEWQTDNCETCTCYETEISCCTLVSTPVGYDKDNCQRIFKKEDCKYIVVEKKDPKKTCSVSEWII
binding of FSH to its receptor [6]: interfere | FSH levels [7]: lower | growth of tumor cells [8]: inhibits | development of skeletal metastasis [9]: reduces
